Test results: patent publication US20240116985A1, “STAPLED PEPTIDES AND METHODS THEREOF” (priority 2020, published 2024)
Read-outs that look alike come from different tables or passages of the source.

Assays:
[1] = target: T1, beta-catenin/TCF4 engagement (Homo sapiens, UniProt P35222); assay: Nano-BRET target engagement assay (B-cat-Halo & TCF4-Luc in HEK293 cells); type: cell-based; conditions: read-out: NanoBRET Abs IC50
T1 construct: expressed in transfected cells; host or cells: HEK293
T1 sequence (P35222 1-781): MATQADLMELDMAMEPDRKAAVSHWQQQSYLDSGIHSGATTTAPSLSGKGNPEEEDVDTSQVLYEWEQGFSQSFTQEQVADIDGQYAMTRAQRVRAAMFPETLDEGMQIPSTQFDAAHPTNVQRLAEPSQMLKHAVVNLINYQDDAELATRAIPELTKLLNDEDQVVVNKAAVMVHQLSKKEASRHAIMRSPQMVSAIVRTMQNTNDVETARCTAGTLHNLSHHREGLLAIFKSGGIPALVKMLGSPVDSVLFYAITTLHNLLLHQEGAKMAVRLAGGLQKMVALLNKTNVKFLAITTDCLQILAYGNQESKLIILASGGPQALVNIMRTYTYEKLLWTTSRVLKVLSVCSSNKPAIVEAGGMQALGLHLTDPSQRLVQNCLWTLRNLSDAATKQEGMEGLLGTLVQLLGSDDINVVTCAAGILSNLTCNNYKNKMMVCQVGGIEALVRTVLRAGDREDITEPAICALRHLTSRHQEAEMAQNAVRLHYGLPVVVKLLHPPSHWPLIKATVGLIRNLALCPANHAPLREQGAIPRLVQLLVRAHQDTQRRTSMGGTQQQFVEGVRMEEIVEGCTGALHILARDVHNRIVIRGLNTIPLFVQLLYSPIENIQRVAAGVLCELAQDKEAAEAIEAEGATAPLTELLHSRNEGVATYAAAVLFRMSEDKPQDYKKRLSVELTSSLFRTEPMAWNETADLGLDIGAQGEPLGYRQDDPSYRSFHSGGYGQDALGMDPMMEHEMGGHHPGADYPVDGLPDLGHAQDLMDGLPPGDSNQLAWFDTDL

[2] = target: T2, full-length beta-Catenin (Uniprot ID P35222) (Homo sapiens, UniProt P35222); assay: Fluorescence polarization IC50 (beta-catenin / 5FAM-TCF4 10-53 competition); type: binding; conditions: fluorescence polarization
T2 construct: 10 nM full-length beta-Catenin (Uniprot ID P35222)
T2 sequence (P35222 1-781): T1 sequence (P35222 1-781)

Row | Structure (SMILES) | IC50 ([1]; absolute IC50) | IC50 ([2]; beta-catenin, read-out: FP EC50) | IC50 ([2]; read-out: beta-Catenin FP IC50) | IC50 [1]
1 | CC(=O)N1CCC[C@]12CC=CCCCC1(CCCC=CCCCOC(=O)N3CC[C@@](C(=O)N[C@@H](Cc4ccccc4Cl)C(=O)N[C@@H](Cc4csc5ccccc45)C(=O)N[C@@H](CC(C)C)C(N)=O)(C3)NC(=O)[C@H](CC(C)C)NC(=O)[C@H](Cc3ccccc3)NC(=O)[C@H](C)NC(=O)[C@H](C)NC(=O)[C@H](CC(=O)O)NC(=O)[C@H](CC(=O)O)NC1=O)NC(=O)[C@H](CC(C)C)NC(=O)[C@H](CC(=O)O)NC2=O (stereo partly drawn) [I-1418, Ac-PL3-Asp-Leu-B5-Asp-Asp-Ala-Ala-Phe-Leu-PyrS2-2C1F-BztA-Leu-NH2] | > 20 µM | 0.106 µM | 0.106 µM | –
2 | CC(=O)N1CCC[C@]12CCCCCCC1(CCCCCCCCOC(=O)N3CC[C@@](C(=O)N[C@@H](Cc4ccccc4C)C(=O)N[C@@H](Cc4csc5ccccc45)C(=O)N[C@@H](CCC(N)=O)C(N)=O)(C3)NC(=O)[C@H](CC(C)C)NC(=O)[C@H](Cc3ccccc3)NC(=O)[C@H](C)NC(=O)[C@H](C)NC(=O)[C@H](CN(CC(=O)O)CC(F)(F)F)NC(=O)[C@H](CC(=O)O)NC1=O)NC(=O)[C@H](CC(C)(C)C)NC(=O)[C@H](CC(=O)O)NC2=O (stereo partly drawn) [I-1726, Ac-PL3-Asp-Npg-B5-Asp-TfeGA-Ala-Ala-Phe-Leu-PyrS2-2MeF-BztA-Gln-NH2] | > 20 µM | – | 0.274 µM | –
3 | CC(=O)N1CCC[C@]12CC=CCCCC1(CCCC=CCCCOC(=O)N3CC[C@@](C(=O)N[C@@H](Cc4ccccc4C(F)(F)F)C(=O)N[C@@H](Cc4csc5c(F)cccc45)C(=O)N[C@@H](CCC(N)=O)C(N)=O)(C3)NC(=O)[C@H](CC(C)C)NC(=O)[C@H](Cc3ccccc3)NC(=O)[C@H](C)NC(=O)[C@H](C)NC(=O)[C@H](Cc3cccc(C(=O)O)c3)NC(=O)[C@H](CC(=O)O)NC1=O)NC(=O)[C@H](CC(C)(C)C)NC(=O)[C@H](CC(=O)O)NC2=O (stereo partly drawn) [I-2488, Ac-PL3-Asp-Npg-B5-Asp-3COOHF-Ala-Ala-Phe-Leu-PyrS2-2F3MeF-7FBztA-Gln-NH2] | 3.6 µM | – | 0.026 µM | –
4 | CC(=O)N1CCC[C@]12CC=CCCCCC1(CCCCC=CCCCOC(=O)N3CC[C@@](C(=O)N[C@@H](Cc4ccccc4C(F)(F)F)C(=O)N[C@@H](Cc4csc5ccccc45)C(=O)N[C@@H](CCC(N)=O)C(N)=O)(C3)NC(=O)[C@H](CC(C)C)NC(=O)[C@H](Cc3ccccc3)NC(=O)[C@H](C)NC(=O)[C@H](C)NC(=O)[C@H](Cc3cccc(C(=O)O)c3)NC(=O)[C@H](CC(=O)O)NC1=O)NC(=O)[C@H](CC(C)(C)C)NC(=O)[C@H](CC(=O)O)NC2=O (stereo partly drawn) [I-2513, Ac-PL3-Asp-Npg-B6-Asp-3COOHF-Ala-Ala-Phe-Leu-PyrS2-2F3MeF-BztA-Gln-NH2] | > 20 µM | – | 0.066 µM | –
5 | CC(=O)N1CCC[C@]12CC=CCCCC1(CCCC=CCCCOC(=O)N3CC[C@@](C(=O)N[C@@H](Cc4ccsc4)C(=O)N[C@@H](Cc4csc5ccccc45)C(=O)N[C@@H](C)C(N)=O)(C3)NC(=O)[C@H](CC(C)C)NC(=O)[C@H](Cc3ccccc3)NC(=O)[C@H](C)NC(=O)[C@H](C)NC(=O)[C@H](Cc3cccc(C(=O)O)c3)NC(=O)[C@H](CC(=O)O)NC1=O)NC(=O)[C@H](CC(C)(C)C)NC(=O)[C@H](CC(=O)O)NC2=O (stereo partly drawn) [I-2257, Ac-PL3-Asp-Npg-B5-Asp-3COOHF-Ala-Ala-Phe-Leu-PyrS2-3Thi-BztA-Ala-NH2] | 2.9 µM | – | 0.015 µM | –
6 | CC(=O)N1CCC[C@]12CC=CCCCC1(CCCC=CCCCOC(=O)N3CC[C@@](C(=O)N[C@@H](Cc4ccccc4Cl)C(=O)N[C@@H](Cc4csc5ccccc45)C(=O)N[C@@H](C)CO)(C3)NC(=O)[C@H](CC(C)C)NC(=O)[C@H](Cc3ccccc3)NC(=O)[C@H](C)NC(=O)[C@H](C)NC(=O)[C@H](CC(=O)O)NC(=O)[C@H](CC(=O)O)NC1=O)NC(=O)[C@H](CC(C)(C)C)NC(=O)[C@H](CC(=O)O)NC2=O (stereo partly drawn) [I-1250, Ac-PL3-Asp-Npg-B5-Asp-Asp-Ala-Ala-Phe-Leu-PyrS2-2C1F-BztA-Alao1] | > 20 µM | – | 0.031 µM | –
7 | CC(=O)N1CCC[C@]12CC=CCCCC1(CCCC=CCCCOC(=O)N3CC[C@@](C(=O)N[C@@H](Cc4ccsc4)C(=O)N[C@@H](Cc4csc5ccccc45)C(=O)N[C@@H](CC(C)(C)C)C(N)=O)(C3)NC(=O)[C@H](CC(C)C)NC(=O)[C@H](Cc3ccccc3)NC(=O)[C@H](C)NC(=O)[C@H](CO)NC(=O)[C@H](Cc3cccc(C(=O)O)c3)NC(=O)[C@H](CC(=O)O)NC1=O)NC(=O)[C@H](CC(C)(C)C)NC(=O)[C@H](CC(=O)O)NC2=O (stereo partly drawn) [I-2195, Ac-PL3-Asp-Npg-B5-Asp-3COOHF-Ser-Ala-Phe-Leu-PyrS2-3Thi-BztA-Npg-NH2] | – | – | 0.062 µM | 21 µM
8 | CC(=O)N1CCC[C@]12CC=CCCCC1(CCCC=CCCCOC(=O)N3CC[C@@](C(=O)N[C@@H](Cc4ccsc4)C(=O)N[C@@H](Cc4csc5ccccc45)C(=O)N[C@@H](Cc4ccccc4)C(N)=O)(C3)NC(=O)[C@H](CC(C)C)NC(=O)[C@H](Cc3ccccc3)NC(=O)[C@H](C)NC(=O)[C@H](C)NC(=O)[C@H](CN(CC(=O)O)CC(F)(F)F)NC(=O)[C@H](CC(=O)O)NC1=O)NC(=O)[C@H](CC(C)(C)C)NC(=O)[C@H](CC(=O)O)NC2=O (stereo partly drawn) [I-1750, Ac-PL3-Asp-Npg-B5-Asp-TfeGA-Ala-Ala-Phe-Leu-PyrS2-3Thi-BztA-Phe-NH2] | 23.7 µM | – | 0.104 µM | –
9 | CC(=O)N1CCC[C@]12CC=CCCCC1(CCCC=CCCCOC(=O)N3CC[C@@](C(=O)N[C@@H](Cc4ccsc4)C(=O)N[C@@H](Cc4csc5ccccc45)C(=O)N[C@@H](CO)C(N)=O)(C3)NC(=O)[C@H](CC(C)C)NC(=O)[C@H](Cc3ccccc3)NC(=O)[C@H](C)NC(=O)[C@H](C)NC(=O)[C@H](Cc3cc(C(=O)O)cc(C(F)(F)F)c3)NC(=O)[C@H](CC(=O)O)NC1=O)NC(=O)[C@H](CC(C)(C)C)NC(=O)[C@H](CC(=O)O)NC2=O (stereo partly drawn) [I-2209, Ac-PL3-Asp-Npg-B5-Asp-5F3Me3COOHF-Ala-Ala-Phe-Leu-PyrS2-3Thi-BztA-Ser-NH2] | 18.6 µM | – | 0.05 µM | –
10 | CC(=O)N1CCC[C@]12CC=CCCCC1(CCCC=CCCCOC(=O)N3CC[C@@](C(=O)N[C@@H](Cc4ccsc4)C(=O)N[C@@H](Cc4csc5ccccc45)C(=O)N[C@H](CO)[C@@H](C)O)(C3)NC(=O)[C@H](Cc3ccccc3)NC(=O)[C@H](Cc3ccccc3)NC(=O)[C@H](C)NC(=O)[C@H](C)NC(=O)[C@H](Cc3ccccc3C(=O)O)NC(=O)[C@H](CC(=O)O)NC1=O)NC(=O)[C@H](CC(C)(C)C)NC(=O)[C@H](CC(=O)O)NC2=O (single isomer, unassigned) [I-1669, Ac-PL3-Asp-Npg-B5-Asp-2COOHF-Ala-Ala-Phe-Phe-PyrS2-3Thi-BztA-Thro1] | 11.8 µM | – | 0.03 µM | –
11 | CC(=O)N1CCC[C@]12CC=CCCCC1(CCCC=CCCCOC(=O)N3CC[C@@](C(=O)N[C@@H](Cc4ccsc4)C(=O)N[C@@H](Cc4csc5ccccc45)C(=O)N[C@@H](CCO)C(N)=O)(C3)NC(=O)[C@H](CC(C)C)NC(=O)[C@H](Cc3ccccc3)NC(=O)[C@H](C)NC(=O)[C@H](C)NC(=O)[C@H](CC(=O)O)NC(=O)[C@H](CC(=O)O)NC1=O)NC(=O)[C@H]([C@@H](C)O)NC(=O)[C@H](CC(=O)O)NC2=O (stereo partly drawn) [I-1516, Ac-PL3-Asp-Thr-B5-Asp-Asp-Ala-Ala-Phe-Leu-PyrS2-3Thi-BztA-Hse-NH2] | > 20 µM | – | 0.03 µM | –
12 | CC(=O)N1CCC[C@]12CC1OC1CCCC1(CCCC=CCCCOC(=O)N3CC[C@@](C(=O)N[C@@H](Cc4ccsc4)C(=O)N[C@@H](Cc4csc5ccccc45)C(=O)N[C@@H](CCC(N)=O)C(N)=O)(C3)NC(=O)[C@H](CC(C)C)NC(=O)[C@H](Cc3ccccc3)NC(=O)[C@H](C)NC(=O)[C@H](C)NC(=O)[C@H](CN(CC(=O)O)CC(F)(F)F)NC(=O)[C@H](CC(=O)O)NC1=O)NC(=O)[C@H](CC(C)(C)C)NC(=O)[C@H](CC(=O)O)NC2=O (stereo partly drawn) [I-2594, Ac-PL3-Asp-Npg-B5-Asp-TfeGA-Ala-Ala-Phe-Leu-PyrS2-3Thi-BztA-Gln-NH2] | – | – | 0.47 µM | > 20 µM
13 | CC(=O)N1CCC[C@]12CC=CCCCCC1(CCCCC=CCOC(=O)N3CC[C@@](C(=O)N[C@@H](Cc4ccccc4C(F)(F)F)C(=O)N[C@@H](Cc4csc5ccccc45)C(=O)N[C@@H](CCC(N)=O)C(N)=O)(C3)NC(=O)[C@H](CC(C)C)NC(=O)[C@H](Cc3ccccc3)NC(=O)[C@H](C)NC(=O)[C@H](C)NC(=O)[C@H](Cc3cccc(C(=O)O)c3)NC(=O)[C@H](CC(=O)O)NC1=O)NC(=O)[C@H](CC(C)(C)C)NC(=O)[C@H](CC(=O)O)NC2=O (stereo partly drawn) [I-2518, Ac-PL3-Asp-Npg-B6-Asp-3COOHF-Ala-Ala-Phe-Leu-PyrS-2F3MeF-BztA-Gln-NH2] | > 20 µM | – | 0.212 µM | –
